Results taken from US8816119B2, “Arylamide derivatives having antiandrogenic properties” (Medeia Therapeutics Ltd, priority 2010, dated 2014).
Positions count from the first letter of the chain named.

Tests used:
Assay type in all cases: cell-based
[1] = target: T1, WT AR (Homo sapiens, UniProt P10275); test: Antagonism in WT AR, AR transactivation reporter gene assay in COS-1 cells, competitive setting with 50 nM testosterone; conditions: 18 h
T1 construct: expressed in transfected cells; host or cells: COS-1
T1 sequence (P10275 1-920): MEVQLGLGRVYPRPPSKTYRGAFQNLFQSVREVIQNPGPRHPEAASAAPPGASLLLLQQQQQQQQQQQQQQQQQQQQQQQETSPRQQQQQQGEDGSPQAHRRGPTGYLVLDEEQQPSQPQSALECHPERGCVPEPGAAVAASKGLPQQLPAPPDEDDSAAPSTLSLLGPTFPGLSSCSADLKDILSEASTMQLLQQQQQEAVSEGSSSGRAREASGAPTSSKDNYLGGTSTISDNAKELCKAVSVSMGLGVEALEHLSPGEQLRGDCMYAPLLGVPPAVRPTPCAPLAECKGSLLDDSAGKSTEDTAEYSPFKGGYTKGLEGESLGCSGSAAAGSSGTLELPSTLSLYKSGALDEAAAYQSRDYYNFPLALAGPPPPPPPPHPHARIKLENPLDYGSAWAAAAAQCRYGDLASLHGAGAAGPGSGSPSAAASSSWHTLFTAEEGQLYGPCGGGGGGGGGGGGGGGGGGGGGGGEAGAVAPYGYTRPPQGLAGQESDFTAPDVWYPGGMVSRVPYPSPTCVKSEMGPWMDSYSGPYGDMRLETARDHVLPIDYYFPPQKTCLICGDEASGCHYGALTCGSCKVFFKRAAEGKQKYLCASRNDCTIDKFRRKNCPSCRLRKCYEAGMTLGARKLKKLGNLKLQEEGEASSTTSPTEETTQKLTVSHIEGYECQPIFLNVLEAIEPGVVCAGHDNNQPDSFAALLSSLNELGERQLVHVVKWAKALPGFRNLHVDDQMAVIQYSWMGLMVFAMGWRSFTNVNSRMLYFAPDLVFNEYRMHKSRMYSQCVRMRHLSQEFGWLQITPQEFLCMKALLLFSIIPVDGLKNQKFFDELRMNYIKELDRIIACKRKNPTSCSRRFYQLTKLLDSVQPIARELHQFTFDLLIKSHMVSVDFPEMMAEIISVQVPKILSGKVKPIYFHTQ
Procedure: After 18 h, reporter gene activities (LUC and beta-galactosidase) were determined according to standard methods. The data are expressed as relative LUC activity (luciferase light units divided by beta-galactosidase A420nm to control for transfection efficiency) of a given compound in relation to the activity of a reference test item (=100%).
Antagonism in WT AR of compounds of the present invention was measured in AR transctivation assay in COS-1 cells in competitive setting using testosterone as a reference agonist as described above. […] Relative LUC activity representing AR-dependent transcription obtained by exposure to testosterone alone was set to 100%.

[2] = target: T2, T877A AR (Homo sapiens, UniProt P10275, T878A); test: Agonism in T877A mutant AR, AR transactivation assay in COS-1 cells, test compounds alone; conditions: 10 microM, compound alone
T2 construct: expressed in transfected cells; host or cells: COS-1
T2 sequence (P10275 1-920 T878A): T1 sequence (P10275 1-920) with T878A
Source text: The transfected cells were exposed to test compounds alone. Testosterone was used as reference agonist, and its' relative LUC activity representing AR-dependent transcription was set to 100%.

[3] = target: T3, W741L AR (Homo sapiens, UniProt P10275, W742L); test: Agonism in W741L mutant AR, AR transactivation assay in COS-1 cells, test compounds alone; conditions: 10 microM, compound alone
T3 construct: expressed in transfected cells; host or cells: COS-1
T3 sequence (P10275 1-920 W742L): T1 sequence (P10275 1-920) with W742L
Procedure: COS-1 (American Type Culture Collection) were cultured in DMEM supplemented with 10% FBS, penicillin (6.25 U/ml) and streptomycin (6.25 μg/ml) and seeded onto 48-well plates (50 000 cells/well) one day before transfection. Transfection media containing 2.5% charcoal-stripped FBS in DMEM was changed on cells 4 h prior to transfection. Cells were transfected with 50 ng of reporter gene plasmid (pPB-286/+32-LUC; PB, probasin promoter), 5 ng of AR expression plasmid (pSG5-hAR), and 5 ng of pCMVβ (an internal, beta-galactosidase control for transfection efficiency and cell growth) using TranslT-LT1 reagent (Mirus Bio Corporation) according to the manufacturer's instructions. […] After 18 h, reporter gene activities (LUC and beta-galactosidase) were determined according to standard methods. The data are expressed as relative LUC activity (luciferase light units divided by beta-galactosidase A420nm to control for transfection efficiency) of a given compound in relation to the activity of a reference test item (=100%).
Agonism in W741L AR of compounds of the present invention was measured in AR transactivation assay in COS-1 cells as described above except that AR expression vector harboring the W741L mutation was used instead of the WT AR. The transfected cells were exposed to test compounds alone.

Row | Compound | Relative LUC activity (%) indicating residual androgen activity in relation to testosterone (100%) ([1]; 1 microM compound) [%] | Relative LUC activity (%) indicating residual androgen activity in relation to testosterone (100%) ([1]; 10 microM compound) [%] | Relative LUC activity (%) in T877A AR in relation to testosterone (100%) [2] [%] | Relative LUC activity (%) in W741L AR in relation to BIC (100%) [3] [%]
1 | N#Cc1ccc(NC(=O)C(O)(CS(=O)(=O)c2ccc(F)c(F)c2)c2ccc(F)cc2)cc1Cl (stereo not drawn) [Example 6, N-(3-chloro-4-cyanophenyl)-3-[(3,4-difluorobenzene)sulfonyl]-2-(4-fluorophenyl)-2-hydroxypropanamide] | 7 | 5 | – | –
2 | N#Cc1ccc(NC(=O)C(O)(CS(=O)(=O)Cc2ccco2)c2ccc(C(F)(F)F)cc2)cc1C(F)(F)F (stereo not drawn) [Example 3, N-[4-cyano-3-(trifluoro-methyl)phenyl]-3-[(furan-2-ylmethane)sulfonyl]-2-hydroxy-2-[4-(trifluoromethyl)phenyl]propanamide] | 17 | 3 | 3 | 4
3 | CCS(=O)(=O)CC(O)(C(=O)Nc1ccc(C#N)c(C(F)(F)F)c1)c1ccc(F)cc1 (stereo not drawn) [Example 1, N-[4-cyano-3-(trifluoro-methyl)phenyl]-3-(ethanesulfonyl)-2-(4-fluorophenyl)-2-hydroxypropanamide] | – | – | 14 | 12
4 | N#Cc1ccc(NC(=O)C(O)(CS(=O)(=O)c2ccc(Cl)cc2)c2ccc(Cl)cc2)cc1Cl (stereo not drawn) [Example 18, N-(3-chloro-4-cyanophenyl)-3-[(4-chlorobenzene)sulfonyl]-2-(4-chlorophenyl)-2-hydroxypropanamide] | 7 | 1 | 6 | 27
5 | COc1ccc(C(O)(CS(=O)(=O)c2ccc(F)c(F)c2)C(=O)Nc2ccc(C#N)c(C(F)(F)F)c2)cc1F (stereo not drawn) [Example 22, N-(4-cyano-3-(trifluoromethyl)phenyl)-3-[(3,4-difluorobenzene)sulfonyl]-2-hydroxy-2-[3-fluoro-4-(methoxy)phenyl]propanamide] | 9 | 3 | – | –
6 | COc1ccc(C(O)(CS(=O)(=O)c2cccc(F)c2)C(=O)Nc2ccc(C#N)c(Cl)c2)cc1F (stereo not drawn) [Example 33, N-(3-chloro-4-cyanophenyl)-2-(3-fluoro-4-methoxyphenyl)-3-[(3-fluorobenzene)sulfonyl]-2-hydroxypropanamide] | 5 | 1 | – | –
7 | CCS(=O)(=O)CC(O)(C(=O)Nc1ccc(C#N)c(C(F)(F)F)c1)c1ccc(C(F)(F)F)cc1 (stereo not drawn) [Example 17, N-[4-cyano-3-(trifluoromethyl)phenyl]-3-(ethanesulfonyl)-2-[4-(trifuoromethyl)phenyl]-2-hydroxypropanamide] | 18 | 3 | – | –
8 | N#Cc1ccc(NC(=O)C(O)(CS(=O)(=O)c2cccc(F)c2)c2ccc(F)c(F)c2)cc1C(F)(F)F (stereo not drawn) [Example 39, N-[4-cyano-3-(trifluoromethyl)phenyl]-2-(3,4-difluorophenyl)-3-[(3-fluorobenzene)sulfonyl]-2-hydroxypropanamide] | 14 | 2 | – | –
9 | CC(C)CCS(=O)(=O)CC(O)(C(=O)Nc1ccc(C#N)c(C(F)(F)F)c1)c1ccc(F)cc1 (stereo not drawn) [Example 2, N-[4-cyano-3-(trifluoromethyl)phenyl]-2-(4-fluorophenyl)-2-hydroxy-3-[(3-methylbutane)-sulfonyl]propanamide] | 12 | 3 | – | –
10 | CCS(=O)(=O)CC(O)(C(=O)Nc1ccc(C#N)c(Cl)c1)c1ccc(F)c(F)c1 (stereo not drawn) [Example 5, N-(3-chloro-4-cyanophenyl)-2-(3,4-difluorophenyl)-3-(ethanesulfonyl)-2-hydroxypropanamide] | – | – | 9 | 18
